Here are results for 54 molecules from patent US20250162989A1, “USP30 INHIBITORS AND USES THEREOF” (Vincere Biosciences, Inc., priority 2021, published 2025).

One may read the IC50 as the concentration that gives 50% inhibition.

In the first test the target is recombinant USP30 (amino acids 57-517 of the human sequence) (Homo sapiens (Human), UniProt Q70CQ3). The test is described as follows: In vitro USP30 biochemical assay (Ubiquitin-Rhodamine substrate). The note with it: 1.5 nM recombinant USP30, 25 nM Ubiquitin-Rhodamine, fluorescence. As for the experimental part: In vitro biochemical assay to establish the potency of compounds for USP30 inhibition: a 384-well plate assay using a fluorophore tagged substrate of USP30 was used for in vitro screening of compounds. Each compound was tested at
recombinant USP30 (amino acids 57-517 of the human sequence), sequence (Q70CQ3 57-517): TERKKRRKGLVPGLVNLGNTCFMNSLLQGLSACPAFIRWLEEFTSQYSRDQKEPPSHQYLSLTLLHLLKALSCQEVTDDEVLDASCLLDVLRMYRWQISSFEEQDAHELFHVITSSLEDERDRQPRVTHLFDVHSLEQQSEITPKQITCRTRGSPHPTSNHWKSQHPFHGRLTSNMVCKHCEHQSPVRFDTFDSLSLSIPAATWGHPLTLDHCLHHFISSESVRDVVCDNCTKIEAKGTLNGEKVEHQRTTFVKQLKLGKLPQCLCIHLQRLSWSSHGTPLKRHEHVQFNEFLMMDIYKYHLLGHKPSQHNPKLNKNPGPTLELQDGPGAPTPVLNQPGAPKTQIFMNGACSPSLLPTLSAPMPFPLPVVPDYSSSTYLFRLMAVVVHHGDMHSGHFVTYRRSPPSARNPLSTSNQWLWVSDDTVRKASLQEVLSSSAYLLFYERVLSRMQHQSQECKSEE
10 different concentrations (0.5 to 10,000 nM) in duplicate wells. […] Data were analyzed using Graph Pad Prism software with a four-parameter (floating slope) fit to log concentration data to determine IC50s.
Consider `N#CN1CC(NC(=O)[C@H](Cc2ccccc2)NC(=O)c2ccc(F)cc2)C1` [Compound I-241], for which the IC50 lay in the range of 0.05 to 1 µM.

Take `CCNS(=O)(=O)c1cccc2c(NC(=O)[C@H](CC3CCOCC3)NC(=O)c3ccc(F)cc3)cccc12` [Compound I-9]: the IC50 lay within 0.05 to 1 µM.

As to `CC(C)(C)NS(=O)(=O)c1ccc(NC(=O)[C@@H]2C[C@H](c3ccccc3)CN2C(=O)c2ccc(F)cc2)cc1` [Compound I-283], the IC50 lay within 0.05 to 1 µM.

As for `COc1cc(NC(=O)[C@H](CC2CCOCC2)NC(=O)c2ccc(F)cc2)ccc1S(=O)(=O)NC1CCN(C)CC1` [Compound I-88], the IC50 is 0.05 to 1 µM.

Take `CO[C@@H]1C[C@@H](C(=O)Nc2ccc(S(=O)(=O)N[C@@H]3CCOC3)cc2)N(C(=O)c2ccc(F)cc2)C1` [Compound I-277]: the IC50 was in the range of 0.05 to 1 µM.

As to `CC(C)(C)NS(=O)(=O)c1ccc(NC(=O)[C@H](Cc2ccccc2)NC(=O)C2CCN(C#N)CC2)cc1` [Compound I-233], the IC50 was in the range of 0.05 to 1 µM.

Take `CC(C)(CO)NS(=O)(=O)c1ccc(NC(=O)[C@@H]2C[C@@H](c3ccccc3)CN2C(=O)c2ccc(F)cc2)cc1` [Compound I-262]: the IC50 was in the range of 1 to 10 µM.

`O=C(N[C@@H](Cc1ccccc1)C(=O)Nc1ccc(S(=O)(=O)NCc2ncccn2)cc1)c1ccc(F)cc1` [Compound I-228]: the IC50 lay in the range of 0.05 to 1 µM.

For the molecule `CC(C)(C)NS(=O)(=O)c1cccc2c(NC(=O)[C@H](Cc3ccccc3)NC(=O)N3CCOCC3)cccc12` [Compound I-195], the IC50 was 0.05 to 1 µM.

For the molecule `COc1cc(NC(=O)[C@H](CC2CCOCC2)NC(=O)c2ccc(F)cc2)cnc1S(=O)(=O)NC(C)(C)C` [Compound I-75], the 50% inhibitory concentration (IC50) lay in the range of 0.05 to 1 µM.

Regarding `CC(C)(C)NS(=O)(=O)c1ccc(NC(=O)[C@H](CC2CCNCC2)NC(=O)N2CCOCC2)cc1` [Compound I-215], the IC50 was 1 to 10 µM.

As for `COCCC(C)(C)NS(=O)(=O)c1ccc(NC(=O)[C@H](CC(C)C)NC(=O)c2ccc(F)cc2)cc1` [Compound I-18], the IC50 was 0.05 to 1 µM.

For `CC(C)(C)NS(=O)(=O)N1CCC(NC(=O)[C@H](Cc2ccccc2)NC(=O)c2ccc(F)cc2)CC1` [Compound I-58, (S)—N-(1-((1-(N-(tert-butyl)sulfamoyl)piperidin-4-yl)amino)-1-oxo-3-phenylpropan-2-yl)-4-fluorobenzamide], the IC50 lay in the range of 1 to 10 µM.

On to `CO[C@@H]1C[C@@H](C(=O)Nc2ccc(S(=O)(=O)NC(C)(C)C)cc2)N(C(=O)c2ccc(F)cc2)C1` [Compound I-267], for which the IC50 is 1 to 10 µM.

In the case of `CC(C)(C)NS(=O)(=O)c1ccc(NC(=O)[C@H](CC2CCN(C(=O)OCc3ccccc3)CC2)NC(=O)c2ccc(F)cc2)cc1` [Compound I-43, benzyl (S)-4-(3-((4-(N-(tert-butyl)sulfamoyl)phenyl)amino)-2-(4-fluorobenzamido)-3-oxopropyl)piperidine-1-carboxylate], the IC50 is 0.05 to 1 µM.

For the molecule `O=C(N[C@@H](CC1CCNCC1)C(=O)Nc1ccc(S(=O)(=O)NC2COC2)nc1)c1ccc(F)cc1` [Compound I-111], the 50% inhibitory concentration (IC50) was 1 to 10 µM.

Regarding `CC(C)(C)NS(=O)(=O)c1ccc(NC(=O)[C@H](CC2CCNCC2)NC(=O)c2ccc(F)cc2)cc1` [Compound I-40, (S)—N-(1-((4-(N-(tert-butyl)sulfamoyl)phenyl)amino)-1-oxo-3-(piperidin-4-yl)propan-2-yl)-4-fluorobenzamide], the IC50 lay within 0.05 to 1 µM.

Regarding `COc1cc(NC(=O)[C@H](CC2CCOCC2)NC(=O)c2ccc(F)cc2)cnc1S(=O)(=O)NC1CCC1` [Compound I-81], the IC50 was in the range of 0.05 to 1 µM.

As for `CC(C)(C)NS(=O)(=O)c1ccc(NC(=O)[C@H](Cc2ccccc2)NC(=O)c2ccc3cn[nH]c3c2)cc1` [Compound I-190], the IC50 is 1 to 10 µM.

In the case of `COc1cc(NC(=O)[C@H](CC2CCOCC2)NC(=O)c2ccc(F)cc2)cnc1S(=O)(=O)NC1CCN(C)CC1` [Compound I-83], the IC50 lay within 1 to 10 µM.

Regarding `COC[C@H](NC(=O)c1ccc(F)cc1)C(=O)Nc1ccc(S(=O)(=O)NC(C)(C)CO)cc1` [Compound I-32], the 50% inhibitory concentration (IC50) was in the range of 1 to 10 µM.

For `COc1cc(NC(=O)[C@H](CC2CCNCC2)NC(=O)c2ccc(F)cc2)ccc1S(=O)(=O)NC1CCOCC1` [Compound I-135], the 50% inhibitory concentration (IC50) is 0.05 to 1 µM.

`CC(C)C[C@H](NC(=O)c1ccccc1)C(=O)NC1CN(C(=O)OCc2ccccc2)C1` [Compound I-247]: the concentration for half-maximal inhibition (IC50) fell in the range of 1 to 10 µM.

For `COCC[C@H](NC(=O)c1ccc(F)cc1)C(=O)Nc1ccc(S(=O)(=O)NC(C)(C)CN2CCOCC2)cc1` [Compound I-27], the IC50 was in the range of 1 to 10 µM.

For the molecule `CC(C)(C)NS(=O)(=O)c1ccc(NC[C@H](O)[C@H](Cc2ccncc2)NC(=O)c2ccc(F)cc2)cc1` [Compound I-236], the IC50 fell in the range of 0.05 to 1 µM.

For `CC(C)(CN1CCOCC1)NS(=O)(=O)c1ccc(NC(=O)[C@@H](NC(=O)c2ccc(F)cc2)C2CC2)cc1` [Compound I-53], the IC50 lay within 1 to 10 µM.

As for `COC[C@H](NC(=O)c1ccc(F)cc1)C(=O)Nc1ccc(S(=O)(=O)NC(C)(C)CN2CCOCC2)cc1` [Compound I-33], the IC50 lay in the range of 1 to 10 µM.

With `O=C(N[C@H](C(=O)Nc1ccc(S(=O)(=O)NC2COC2)cc1)C1CC1)c1ccc(F)cc1` [Compound I-54, (S)—N-(1-cyclopropyl-2-((4-(N-(oxetan-3-yl)sulfamoyl)phenyl)amino)-2-oxoethyl)-4-fluorobenzamide], the IC50 lay in the range of 1 to 10 µM.

With `CN1CCC(C[C@H](NC(=O)c2ccc(F)cc2)C(=O)Nc2ccc(S(=O)(=O)NC(C)(C)CF)cc2)CC1` [Compound I-127], the IC50 is 0.05 to 1 µM.

With `O=C(N[C@@H](CC1CCOCC1)C(=O)Nc1cccc2c(S(=O)(=O)NC3COC3)cccc12)c1ccc(F)cc1` [Compound I-10], the IC50 fell in the range of 1 to 10 µM.

For the molecule `COc1cc(NC(=O)[C@H](CC(C)C)NC(=O)c2ccc(F)cc2)ccc1S(=O)(=O)NC(C)(C)C` [Compound I-13], the IC50 is 0.05 to 1 µM.

As for `O=C(Nc1ccc(S(=O)(=O)NC2COC2)cc1)[C@@H]1C[C@@H](c2ccccc2)CN1C(=O)c1ccc(F)cc1` [Compound I-263], the IC50 fell in the range of 1 to 10 µM.

Turning to `CC(C)(CO)NS(=O)(=O)c1ccc(NC(=O)[C@@H](NC(=O)c2ccc(F)cc2)C2CC2)cc1` [Compound I-52], the IC50 is 1 to 10 µM.

Regarding `O=C(N[C@@H](CCO)C(=O)Nc1ccc(S(=O)(=O)NC2COC2)cc1)c1ccc(F)cc1` [Compound I-31], the IC50 lay within 1 to 10 µM.

Take `CC(C)(C)NS(=O)(=O)c1ccc(NC(=O)[C@@H]2C[C@H](O)CN2C(=O)c2ccc(F)cc2)cc1` [Compound I-279]: the IC50 was 1 to 10 µM.

On to `COc1cc(NC(=O)[C@H](CC(C)C)NC(=O)c2ccc(F)cc2)ccc1S(=O)(=O)NC(C)(C)CO` [Compound I-14], for which the IC50 fell in the range of 0.05 to 1 µM.

As for `CC(C)(C)NS(=O)(=O)c1ccc(NC(=O)[C@H](Cc2ccccc2)NC(=O)c2cncnc2)cc1` [Compound I-188], the IC50 lay in the range of 0.05 to 1 µM.

For the molecule `CC(C)(C)NS(=O)(=O)c1ccc(NC(=O)[C@@H]2C[C@@H](c3ccccc3)CN2C(=O)c2ccc(F)cc2)cc1` [Compound I-49, (2S,4S)—N-(4-(N-(tert-butyl)sulfamoyl)phenyl)-1-(4-fluorobenzoyl)-4-phenylpyrrolidine-2-carboxamide], the IC50 was 0.05 to 1 µM.

For `N#CN1CC[C@H](NC(=O)[C@H](Cc2ccccc2)NC(=O)c2ccc(F)cc2)C1` [Compound I-123], the concentration for half-maximal inhibition (IC50) was in the range of 1 to 10 µM.

Take `COCCC(C)(C)NS(=O)(=O)c1ccc(NC(=O)[C@H](CC2CCOCC2)NC(=O)c2ccc(F)cc2)cc1` [Compound I-7]: the IC50 was 0.05 to 1 µM.

Still in this test, the particulars now being: […] recombinant USP30, 25 nM Ubiquitin-Rhodamine, fluorescence.
`CNS(=O)(=O)N1CCC(NC(=O)[C@H](Cc2ccccc2)NC(=O)c2ccc(F)cc2)CC1` [Compound I-118]: the IC50 was more than 10 µM.

Turning to `O=C(Nc1ccc(S(=O)(=O)N[C@@H]2CCOC2)cc1)[C@@H]1C[C@H](O)CN1C(=O)c1ccc(F)cc1` [Compound I-282], the IC50 is more than 10 µM.

Turning to `CC(=O)N1CCC(NC(=O)[C@H](Cc2ccccc2)NC(=O)c2ccc(F)cc2)CC1` [Compound I-114], the IC50 is more than 10 µM.

In the case of `CC(C)(CO)NS(=O)(=O)c1ccc(NC(=O)[C@@H]2C[C@H](O)CN2C(=O)c2ccc(F)cc2)cc1` [Compound I-280], the half-inhibitory concentration (IC50) is more than 10 µM.

Consider `CC(C)C[C@H](NC(=O)c1ccc(F)cc1)C(=O)NC1CN(C(=O)OCc2ccccc2)C1` [Compound I-248], for which the IC50 is more than 10 µM.

With `CC(C)(C)NS(=O)(=O)c1ccc(NC(=O)[C@@H]2C[C@@H](O)CN2C(=O)c2ccc(F)cc2)cc1` [Compound I-264], the IC50 is more than 10 µM.

As to `CC(C)(C)NS(=O)(=O)c1ccc(NC(=O)C(Cc2ccccc2)c2nnc(-c3ccccc3)[nH]2)cc1` (stereo not drawn) [Compound I-89], the IC50 is more than 10 µM.

For the molecule `CN1CC[C@@H](NC(=O)[C@H](Cc2ccccc2)NC(=O)c2ccc(F)cc2)C1` [Compound I-152], the IC50 was more than 10 µM.

On to `O=C(Nc1ccc(S(=O)(=O)NC2COC2)cc1)[C@@H]1C[C@H](O)CN1C(=O)c1ccc(F)cc1` [Compound I-281], for which the IC50 is more than 10 µM.

As to `CC(C)N1CCC(C[C@H](NC(=O)c2ccc(F)cc2)C(=O)Nc2ccc(S(=O)(=O)NC(C)(C)C)cc2)CC1` [Compound I-287], the IC50 is less than 0.05 µM.

With `CNC(=O)N1CCC(NC(=O)[C@H](Cc2ccccc2)NC(=O)c2ccc(F)cc2)CC1` [Compound I-119], the half-maximal inhibitory concentration (IC50) is more than 10 µM.

For the molecule `CC(C)(C)NS(=O)(=O)c1ccc(NC(=O)C(CC(N)=O)NC(=O)c2ccc(F)cc2)cc1` (stereo not drawn) [Compound I-244], the concentration for half-maximal inhibition (IC50) was more than 10 µM.

As to `CO[C@H]1C[C@@H](C(=O)Nc2ccc(S(=O)(=O)NC(C)(C)CO)cc2)N(C(=O)c2ccc(F)cc2)C1` [Compound I-291], the IC50 is more than 10 µM.

In the case of `COc1cc(NC(=O)[C@H](CC2CCOCC2)NC(=O)c2ccc(F)cc2)ccc1S(=O)(=O)NC(C)(C)C` [Compound I-2, (S)—N-(1-((4-(N-(tert-butyl)sulfamoyl)-3-methoxyphenyl)amino)-1-oxo-3-(tetrahydro-2H-pyran-4-yl)propan-2-yl)-4-fluorobenzamide], the 50% inhibitory concentration (IC50) is less than 0.05 µM.
